Measurements published in patent publication US20190388377A1, “COMPOSITIONS AND METHODS FOR THE TREATMENT OF LIVER DISEASES AND DISORDERS” (AXCELLA HEALTH INC., priority 2018, published 2019).

What was measured:
Human CCL2 (MCP-1) = assay: MCP1 secretion by ELISA after 24 h, PHH model for NASH, Example 2; assay type: cell-based; settings: FFA+TNFα
Procedure: PHH from two healthy human donors (Lonza, TRL) were seeded on day 0 at density of 6e04 cells in 96 well optical microplates (Thermofisher) in hepatocyte plating media (William's E medium, WEM) (Gibco) supplemented with 10% heat-inactivated FBS (Atlanta Bio), 2 mM Glutamax (Gibco), and 0.2% Primocin (InVivoGen) and incubated for 6 hours at 37° C., 5% CO2. After 6 hours, cells were washed twice and incubated overnight at 37° C., 5% CO2 with Hepatocytes defined medium (Corning) supplemented with 2 mM Glutamax (Gibco), and 1× Penicillin/Streptomycin. On day 1, cells were washed twice and incubated for 24 h in the hepatocyte culture media in the same conditions described above.
On day 2, cells were washed twice with DPBS 1× (Gibco) to remove excess amino acids and maintained in pretreatment media (1×HMDB, a defined custom amino acid concentration based on the mean physiological concentrations in blood, in WEM±supplemental amino acids): • a. Amino acid-free WEM (US Biologicals) supplemented with 11 mM Glucose (Sigma), 0.272 mM Sodium Pyruvate (Sigma), 1× P/S (Gibco) and containing 1×HMDB with no supplemental amino acids; or • b. The same media described above 1×HMDB WEM with supplemental amino acid and amino acid combination treatments at various concentrations. Cells were maintained in the defined media (a. & b.) for 24 hours at 37° C., 5% CO2. The HMDB values are published in the Human Metabolome Database (Wishart D S, Tzur D, Knox C, et al., HMDB: the Human Metabolome Database. Nucleic Acids Res. 2007 January; 35 (Database issue):D521-6. 17202168; which is hereby incorporated by reference in its entirety). Co-Treatment with Free Fatty Acids and Amino Acids Combination
After 24 h pre-treatment, cells maintained in the pretreatment media±supplemental amino acids (section (a. & b.) described above) were exposed to free fatty acids (FFA) at 250 uM with a ratio of 2:1 (Oleate:Palmitate) supplemented with TNF-α (Thermofisher) at 1 ng/ml. Cells were incubated with the FFAs mixture (FFAs+TNF-α)±supplemental amino acids treatments for 24 hours at 37° C., 5% CO2. After 24 hours incubation, media was removed for cytokine analysis and replaced by fresh media containing the same conditions described above (FFAs mixture±supplemental amino acids treatments). Cells were incubated for an additional 48 hours for a total of 72 hours of FFA and TNF-α stimulation. After 72 hours of incubation, media was removed for albumin and urea analysis and the cells were fixed for nuclei and lipid staining.
Human CCL2 (MCP-1) was measured by ELISA (Human […] DuoSet ELISA, R&D Systems) at 1/20 dilution in 1× Reagent Diluent (Reagent Ancillary Kit 2, R&D Systems). MCP1 data in primary human hepatocytes treated with FFA+TNFα+supplemental amino acids was normalized to 1×HMDB WEM+FFA+TNFα baseline. Data is reported as median fold change from control, statistical analysis was done using t-Test.

CCL18 = CCL18 secretion by ELISA, IL-4-treated primary human M2 macrophages, Example 5; assay type: cell-based; settings: IL-4 1 ng/ml, 5 mM
Procedure: On day 0, primary human PBMC derived macrophages were seeded in Dulbecco's Modified Eagle Medium (DMEM) (Gibco) supplemented with penicillin-streptomycin (Hyclone) and 10% heat inactivated fetal bovine serum (HI-FBS) (Atlanta Bio) into 96-well microplates (ThermoFisher) and incubated overnight at 37° C., 5% CO2. On day 1, cells were washed once with DPBS and then treated with: • a. Amino acid free DMEM (US Biologicals) containing a defined custom amino acid concentration based on the mean physiological concentrations in blood based on values published in the Human Metabolome Database (HMDB), with 6 mM glucose, 1 mM sodium pyruvate, 10 mM HEPES, penicillin-streptomycin; or • b. The same medium described above with one amino acid or amino acid combination at various concentrations
On day 2, cells were treated with the same mediums described above supplemented with recombinant human interleukin-4 (1 ng/ml of IL-4; Peprotech). […]
On day 3, the supernatant was collected and immediately frozen in −80° C. freezer. Cells were washed once with DPBS and viability was assessed using the WST-8 Cell Proliferation Cytotoxicity Assay (Dojindo) according to manufacturer-supplied protocol. […] Protein levels in supernatant samples were analyzed by ELISA for CCL18 using commercially available kits (R&D Systems) according to manufacturer-supplied protocols.

M1 macrophages = assay: Seahorse XF real-time ATP rate assay in LPS-treated M1 macrophages, Example 6; assay type: cell-based, human
Procedure: Primary human PMBC derived macrophages were seeded on day 0 at 2.0E4 cells per well in a Seahorse […] Cell Culture Microplate V3-PS TC-Treated plate (Agilent) coated with 0.1 mg/mL Poly-D-Lysine (Trevigen) in Dulbecco's Modified Eagle Medium (DMEM) (Gibco) supplemented with penicillin-streptomycin (Gibco) and 10% heat inactivated fetal bovine serum (HI-FBS) (Atlanta Bio) and incubated overnight at 37° C., 5% CO2. On day 1, cells were washed once with 150 uL per well DPBS (Gibco) and treated with 100 uL of: • a. Amino acid free DMEM (US Biologicals) containing a defined custom amino acid concentration based on the mean physiological concentrations in blood based on values published in the Human Metabolome Database (HMDB), with 6 mM glucose, 1 mM sodium pyruvate, 10 mM HEPES (Sigma), and penicillin-streptomycin (Gibco); or • b. The same media described above with supplemental amino acid and amino acid combination treatments at various concentrations. […] Control wells were treated with 0.15 ng/mL LPS, or phosphate buffered saline (PBS). On day 3, the supernatant was collected and immediately frozen in a -80° C. freezer. Cells were analyzed for total ATP production rate, glycolytic ATP production rate, and mitochondrial ATP production rate using a commercially available kit (Agilent Seahorse XF Real-Time ATP Rate Assay Kit) according to manufacturer-supplied protocol on a Seahorse XFe instrument. A custom assay medium (amino acid free DMEM/F12 without phenol red or sodium bicarbonate (US Biologicals) containing a defined custom amino acid concentration based on the mean physiological concentrations in blood based on values published in the Human Metabolome Database (HMDB), with 10 mM XF glucose (Agilent), 1 mM XF pyruvate (Agilent), and 5 mM HEPES (Sigma) was used. Buffer factor for the custom assay medium was determined according to manufacturer-supplied protocol. Following the assay, cells were washed twice with PBS and fixed with 4% paraformaldehyde.

[1] = 30× LIRQNacSCar (7.5 mM Nac and Car) or 7.5 mM Nac vs LPS vehicle control

## CC(=O)N[C@@H](CS)C(=O)O [Nac, N-acetylcysteine]
Human CCL2 (MCP-1); hepatocyte donor 1
  MCP1 secretion (in words): reduced MCP1 secretion
Human CCL2 (MCP-1); hepatocyte donor 2
  MCP1 secretion (in words): reduced MCP1 secretion
CCL18
  CCL18 Median Fold Change from Vehicle (log2): 0.387 log2
M1 macrophages; [1]
  glycolytic ATP production rate (in words): significantly decreased glycolytic, mitochondrial, and total ATP rate measurements
  mitochondrial ATP production rate (in words): significantly decreased glycolytic, mitochondrial, and total ATP rate measurements
  total ATP rate (in words): significantly decreased glycolytic, mitochondrial, and total ATP rate measurements
M1 macrophages; LPS 0.15 ng/mL, 7.5 mM
  Glycolytic ATP Rate, Median Fold Change from Vehicle (Log2): −0.461 Log2
  Mitochondrial ATP Rate, Median Fold Change from Vehicle (Log2): −0.196 Log2
  Total ATP Rate, Median Fold Change from Vehicle (Log2): −0.2744 Log2
